Tests used:
Test in all cases: Bliss excess, mean over the matrix (fraction); higher = more synergy
[1] = tested on: MOG-G-UVW (Low Grade Glioma)
In short: (§1)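 Cell lines in DMEM/F12 or RPMI with 10% FBS were plated in 1536-well plates, held 24 hours at 37°C, 5% CO2, then given two-drug dose matrices for 72 hours (DMSO typically 0.2%). Viability was read by CellTiter-Glo 2.0 luminescence and scaled as inhibition from 0 (vehicle wells) to 1 (blank wells). Combination Emax is the second-highest inhibition in the matrix; Bliss excess is observed combination effect minus expected EA + EB − EA·EB, EA and EB being single-agent effects.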

[2] = tested on: HCC1937 (Breast Carcinoma)
In short: as §1

[3] = tested on: MDA-MB-453 (Breast Carcinoma)
In short: as §1

[4] = tested on: LC-1-sq (Squamous Cell Lung Carcinoma)
In short: as §1

EW-1 (Ewing's Sarcoma) = tested on: EW-1 (Ewing's Sarcoma)
In short: as §1

[5] = tested on: EJM (Plasma Cell Myeloma)
In short: as §1

[6] = tested on: KGN (Other Solid Carcinomas)
In short: as §1

[7] = tested on: DU-145 (Prostate Carcinoma)
In short: as §1

[8] = tested on: ME-180 (Cervical Carcinoma)
In short: as §1

[9] = tested on: OE33 (Esophageal Adenocarcinoma)
In short: as §1

[10] = tested on: EFO-21 (Ovarian Carcinoma)
In short: as §1

[11] = tested on: HAL-01 (B-Lymphoblastic Leukemia)
In short: as §1

[12] = tested on: KOPN-8 (B-Lymphoblastic Leukemia)
In short: as §1

[13] = tested on: Ca-Ski (Cervical Carcinoma)
In short: as §1

COLO-679 (Melanoma) = tested on: COLO-679 (Melanoma)
In short: as §1

[14] = tested on: SW982 (Other Solid Carcinomas)
In short: as §1

[15] = tested on: SNU-387 (Hepatocellular Carcinoma)
In short: as §1

SK-N-AS (Neuroblastoma) = tested on: SK-N-AS (Neuroblastoma)
In short: as §1

[16] = tested on: SK-LU-1 (Lung Adenocarcinoma)
In short: as §1

[17] = tested on: NCI-H1092 (Small Cell Lung Carcinoma)
In short: as §1

COc1nnc2ccc(N3CCC(c4ccc(OCCN5CCN(C)C(=O)[C@H]5C)cc4)CC3)nn12 [AZD5153] + C=CCn1c(=O)c2cnc(Nc3ccc(N4CCN(C)CC4)cc3)nc2n1-c1cccc(C(C)(C)O)n1 [AZD1775] (first compound max 1 µM, partner max 1 µM)
Bliss excess [1]: -0.0518
Bliss excess [2]: -0.0921
Bliss excess [3]: -0.0243
Bliss excess [4]: -0.0288
Bliss excess (EW-1 (Ewing's Sarcoma)): -0.0484
Bliss excess [5]: 0.0229
Bliss excess [6]: -0.12
Bliss excess [7]: -0.0286
Bliss excess [8]: -0.022
Bliss excess [9]: -0.0386
Bliss excess [10]: -0.0036
Bliss excess [11]: -0.0938
Bliss excess [12]: -0.0267
Bliss excess [13]: 0.0125
Bliss excess (COLO-679 (Melanoma)): -0.042
Bliss excess [14]: -0.079
Bliss excess [15]: -0.107
Bliss excess (SK-N-AS (Neuroblastoma)): -0.056
Bliss excess [16]: -0.0461
Bliss excess [17]: 0.0051

— the supplement of paper PMC11061612
